In paper PMC4999848 (Toxins, 2016):

Key:
CES in A498 cells = assay: CES activity on pNPA, A498 cells
CES in Caco-2 cells = assay: CES activity on pNPA, Caco-2 cells
recombinant human CES2 = biological target: T1, recombinant human CES2 (Homo sapiens, UniProt O00748); assay: CES activity on pNPA, recombinant CES2; details: CES2, pNPA 1 mM
T1 sequence (O00748 27-559): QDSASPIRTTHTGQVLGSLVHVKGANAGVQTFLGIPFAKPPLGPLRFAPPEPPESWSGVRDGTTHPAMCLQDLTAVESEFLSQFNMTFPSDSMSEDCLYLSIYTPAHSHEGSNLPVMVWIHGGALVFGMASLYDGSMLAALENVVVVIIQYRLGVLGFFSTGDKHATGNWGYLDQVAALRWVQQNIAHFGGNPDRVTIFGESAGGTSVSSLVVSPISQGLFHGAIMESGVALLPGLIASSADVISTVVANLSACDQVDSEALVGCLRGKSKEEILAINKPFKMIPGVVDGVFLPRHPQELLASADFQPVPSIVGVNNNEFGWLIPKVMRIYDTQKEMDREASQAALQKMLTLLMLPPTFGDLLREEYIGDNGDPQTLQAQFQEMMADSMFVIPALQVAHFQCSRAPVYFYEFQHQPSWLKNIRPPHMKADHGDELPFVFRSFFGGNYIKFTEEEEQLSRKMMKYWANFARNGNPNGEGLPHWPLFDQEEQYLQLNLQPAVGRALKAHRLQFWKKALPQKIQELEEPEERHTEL

CES in S9 Intestine = assay: CES activity on pNPA, intestine S9 fraction
recombinant human CES1 = biological target: T2, recombinant human CES1 (Homo sapiens, UniProt P23141); assay: CES activity on pNPA, recombinant CES1
T2 sequence (P23141 18-567): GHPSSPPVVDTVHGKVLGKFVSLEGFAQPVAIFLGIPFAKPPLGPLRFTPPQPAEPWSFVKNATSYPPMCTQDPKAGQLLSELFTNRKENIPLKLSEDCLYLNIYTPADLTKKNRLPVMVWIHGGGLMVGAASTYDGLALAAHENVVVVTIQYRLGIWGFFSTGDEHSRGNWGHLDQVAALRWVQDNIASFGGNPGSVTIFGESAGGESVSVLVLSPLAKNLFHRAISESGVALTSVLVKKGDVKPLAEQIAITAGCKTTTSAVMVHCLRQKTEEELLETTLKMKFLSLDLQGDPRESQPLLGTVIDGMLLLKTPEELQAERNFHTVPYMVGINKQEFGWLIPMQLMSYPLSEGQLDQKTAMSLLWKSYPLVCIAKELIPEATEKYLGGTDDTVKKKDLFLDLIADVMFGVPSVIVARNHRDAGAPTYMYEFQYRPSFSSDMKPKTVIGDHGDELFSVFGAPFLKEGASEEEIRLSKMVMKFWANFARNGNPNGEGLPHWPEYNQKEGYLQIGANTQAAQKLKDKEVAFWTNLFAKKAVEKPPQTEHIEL

CES in HepG2 cells = assay: CES activity on pNPA, HepG2 cells
CES in T84 cells = assay: CES activity on pNPA, T84 cells
CES in S9 Kidney = assay: CES activity on pNPA, kidney S9 fraction
CES in S9 Liver = assay: CES activity on pNPA, liver S9 fraction
[1] = system: human cell lines (Caco-2, HepG2, T84, A498); assay: cells; type: in vitro ADME; details: read-out: % inhibition of deacetylation of 3/15ADON

## CC(=O)Oc1ccc([N+](=O)[O-])cc1 [pNPA, para-nitrophenyl acetate]
CES in A498 cells; A498, pNPA 1 mM, benzil 100 μM
  Specific activity on pNPA, With Benzil: 1.1 ± 0.1 nmol of pNPA hydrolyzed per minute and per mg of protein
CES in Caco-2 cells; Caco-2, pNPA 1 mM, 37 °C
  Specific activity on pNPA, Without Benzil: 6.2 ± 1.8 nmol of pNPA hydrolyzed per minute and per mg of protein
CES in Caco-2 cells; Caco-2, pNPA 1 mM, benzil 100 μM
  Specific activity on pNPA, With Benzil: 1.1 ± 0.1 nmol of pNPA hydrolyzed per minute and per mg of protein
Recombinant human CES2; 37 °C
  Specific activity on pNPA, Without Benzil: 5671 ± 207 nmol of pNPA hydrolyzed per minute and per mg of protein
Recombinant human CES2; benzil 100 μM
  Specific activity on pNPA, With Benzil: 214 ± 43 nmol of pNPA hydrolyzed per minute and per mg of protein
CES in S9 Intestine; pNPA 1 mM, 37 °C
  Specific activity on pNPA, Without Benzil: 55 ± 9.9 nmol of pNPA hydrolyzed per minute and per mg of protein
CES in S9 Intestine; pNPA 1 mM, benzil 100 μM
  Specific activity on pNPA, With Benzil: 8.3 ± 2.7 nmol of pNPA hydrolyzed per minute and per mg of protein
Recombinant human CES1; CES1, pNPA 1 mM, 37 °C
  Specific activity on pNPA, Without Benzil: 4965 ± 197 nmol of pNPA hydrolyzed per minute and per mg of protein
Recombinant human CES1; CES1, pNPA 1 mM, benzil 100 μM
  Specific activity on pNPA, With Benzil: 167 ± 10 nmol of pNPA hydrolyzed per minute and per mg of protein
CES in HepG2 cells; HepG2, pNPA 1 mM, 37 °C
  Specific activity on pNPA, Without Benzil: 15.7 ± 1.1 nmol of pNPA hydrolyzed per minute and per mg of protein
CES in HepG2 cells; HepG2, pNPA 1 mM, benzil 100 μM
  Specific activity on pNPA, With Benzil: 2.1 ± 0.1 nmol of pNPA hydrolyzed per minute and per mg of protein
CES in T84 cells; T84, pNPA 1 mM, 37 °C
  Specific activity on pNPA, Without Benzil: 6.6 ± 0.7 nmol of pNPA hydrolyzed per minute and per mg of protein
CES in T84 cells; T84, pNPA 1 mM, benzil 100 μM
  Specific activity on pNPA, With Benzil: 0.9 ± 0.2 nmol of pNPA hydrolyzed per minute and per mg of protein
CES in S9 Kidney; pNPA 1 mM, 37 °C
  Specific activity on pNPA, Without Benzil: 69 ± 7.6 nmol of pNPA hydrolyzed per minute and per mg of protein
CES in S9 Kidney; pNPA 1 mM, benzil 100 μM
  Specific activity on pNPA, With Benzil: 8.1 ± 1.4 nmol of pNPA hydrolyzed per minute and per mg of protein
CES in S9 Liver; pNPA 1 mM, 37 °C
  Specific activity on pNPA, Without Benzil: 142 ± 4.6 nmol of pNPA hydrolyzed per minute and per mg of protein
CES in S9 Liver; pNPA 1 mM, benzil 100 μM
  Specific activity on pNPA, With Benzil: 21 ± 2.2 nmol of pNPA hydrolyzed per minute and per mg of protein

## O=C(C(=O)c1ccccc1)c1ccccc1 [benzil]
CES in A498 cells; A498, benzil 100 μM
  % of Inhibition of pNPA deacetylation: 83 ± 16%
CES in Caco-2 cells; Caco-2, benzil 100 μM
  % of Inhibition of pNPA deacetylation: 83 ± 16%
[1]
  inhibition at 100 µM: 10 to 20%
CES in S9 Intestine; benzil 100 μM
  % of Inhibition of pNPA deacetylation: 84 ± 15%
Recombinant human CES1; read-out: % of Inhibition of pNPA deacetylation
  inhibition at 100 µM: 96 ± 3.3%
CES in HepG2 cells; HepG2, benzil 100 μM
  % of Inhibition of pNPA deacetylation: 87 ± 12%
CES in T84 cells; T84, benzil 100 μM
  % of Inhibition of pNPA deacetylation: 85 ± 14%
CES in S9 Kidney; benzil 100 μM
  % of Inhibition of pNPA deacetylation: 88 ± 11%
CES in S9 Liver; benzil 100 μM
  % of Inhibition of pNPA deacetylation: 85 ± 14%
